Test results as given in the supplement of paper PMC10307832.

Legend:
Assay in all cases: relative viability (nuclei count vs DMSO), 5 days (fraction); higher = more cells survive
[1] = tested on: NCI-H1651
Method in brief: (§1)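 Lung cancer cell lines in 1536-well plates were dosed by pin tool the day after seeding, either with one drug alone or with a fixed anchor-drug dose plus five library-drug doses (not always all listed) in √10 steps. After 5 days, cells were fixed and their nuclei stained in one step (final 0.05% Triton X-100, 1% formaldehyde, 1 ug/ml Hoechst), then counted on 4× images. Relative viability is the nuclei count in treated wells divided by that in vehicle wells. Values are medians of duplicate plates.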

[2] = tested on: NCI-H2405
Method in brief: as §1

[3] = tested on: NCI-H1793
Method in brief: as §1

[4] = tested on: LCLC-103H
Method in brief: as §1

[5] = tested on: ChaGo-K-1
Method in brief: as §1

[6] = tested on: NCI-H1395
Method in brief: as §1

[7] = tested on: NCI-H2087
Method in brief: as §1

[8] = tested on: SK-MES-1
Method in brief: as §1

[9] = tested on: NCI-H1563
Method in brief: as §1

[10] = tested on: HCC-827
Method in brief: as §1

[11] = tested on: NCI-H838
Method in brief: as §1

[12] = tested on: EPLC-272H
Method in brief: as §1

[13] = tested on: NCI-H520
Method in brief: as §1

[14] = tested on: NCI-H2085
Method in brief: as §1

[15] = tested on: EMC-BAC-2
Method in brief: as §1

[16] = tested on: LU99A
Method in brief: as §1

[17] = tested on: COR-L23
Method in brief: as §1

[18] = tested on: NCI-H2023
Method in brief: as §1

[19] = tested on: NCI-H1944
Method in brief: as §1

[20] = tested on: NCI-H650
Method in brief: as §1

[21] = tested on: H3255
Method in brief: as §1

## O=c1cc(-c2cccc3c2Sc2ccccc2S3)oc(N2CCOCC2)c1 + COc1cc2c(Oc3ccc(NC(=O)C4(C(=O)Nc5ccc(F)cc5)CC4)cc3F)ccnc2cc1OCCCN1CCOCC1 [Foretinib] (partner 0.25 µM)
[1]; first compound 0.08 µM
  relative viability: 0.798
[1]; first compound 0.253 µM
  relative viability: 0.909
[1]; first compound 0.8 µM
  relative viability: 0.861
[1]; first compound 2.53 µM
  relative viability: 0.754
[1]; first compound 8 µM
  relative viability: 0.979
[2]; first compound 0.08 µM
  relative viability: 0.998
[2]; first compound 0.253 µM
  relative viability: 1.09
[2]; first compound 0.8 µM
  relative viability: 0.975
[2]; first compound 2.53 µM
  relative viability: 0.938
[2]; first compound 8 µM
  relative viability: 1.04
[3]; first compound 0.08 µM
  relative viability: 0.681
[3]; first compound 0.253 µM
  relative viability: 0.826
[3]; first compound 0.8 µM
  relative viability: 0.562
[3]; first compound 2.53 µM
  relative viability: 0.595
[3]; first compound 8 µM
  relative viability: 0.588
[4]; first compound 0.08 µM
  relative viability: 0.721
[4]; first compound 0.253 µM
  relative viability: 0.831
[4]; first compound 0.8 µM
  relative viability: 0.794
[4]; first compound 2.53 µM
  relative viability: 0.71
[4]; first compound 8 µM
  relative viability: 0.712
[5]; first compound 0.08 µM
  relative viability: 0.883
[5]; first compound 0.253 µM
  relative viability: 0.98
[5]; first compound 0.8 µM
  relative viability: 1.03
[5]; first compound 2.53 µM
  relative viability: 0.88
[5]; first compound 8 µM
  relative viability: 0.861
[6]; first compound 0.08 µM
  relative viability: 0.934
[6]; first compound 0.253 µM
  relative viability: 0.887
[6]; first compound 0.8 µM
  relative viability: 1.07
[6]; first compound 2.53 µM
  relative viability: 0.938
[6]; first compound 8 µM
  relative viability: 1.09
[7]; first compound 0.08 µM
  relative viability: 0.976
[7]; first compound 0.253 µM
  relative viability: 1.13
[7]; first compound 0.8 µM
  relative viability: 1.3
[7]; first compound 2.53 µM
  relative viability: 1.23
[7]; first compound 8 µM
  relative viability: 1.19
[8]; first compound 0.08 µM
  relative viability: 0.952
[8]; first compound 0.253 µM
  relative viability: 1.13
[8]; first compound 0.8 µM
  relative viability: 0.645
[8]; first compound 2.53 µM
  relative viability: 0.611
[8]; first compound 8 µM
  relative viability: 0.775
[9]; first compound 0.08 µM
  relative viability: 0.922
[9]; first compound 0.253 µM
  relative viability: 0.895
[9]; first compound 0.8 µM
  relative viability: 0.868
[9]; first compound 2.53 µM
  relative viability: 0.89
[9]; first compound 8 µM
  relative viability: 0.91
[10]; first compound 0.08 µM
  relative viability: 0.94
[10]; first compound 0.253 µM
  relative viability: 1.12
[10]; first compound 0.8 µM
  relative viability: 1.07
[10]; first compound 2.53 µM
  relative viability: 0.863
[10]; first compound 8 µM
  relative viability: 1.02
[11]; first compound 0.08 µM
  relative viability: 0.995
[11]; first compound 0.253 µM
  relative viability: 1.25
[11]; first compound 0.8 µM
  relative viability: 0.88
[11]; first compound 2.53 µM
  relative viability: 0.878
[11]; first compound 8 µM
  relative viability: 0.972
[12]; first compound 0.08 µM
  relative viability: 0.6
[12]; first compound 0.253 µM
  relative viability: 0.624
[12]; first compound 0.8 µM
  relative viability: 0.897
[12]; first compound 2.53 µM
  relative viability: 0.675
[12]; first compound 8 µM
  relative viability: 0.572
[13]; first compound 0.08 µM
  relative viability: 0.786
[13]; first compound 0.253 µM
  relative viability: 0.885
[13]; first compound 0.8 µM
  relative viability: 0.835
[13]; first compound 2.53 µM
  relative viability: 0.779
[13]; first compound 8 µM
  relative viability: 0.985
[14]; first compound 0.08 µM
  relative viability: 0.907
[14]; first compound 0.253 µM
  relative viability: 1.21
[14]; first compound 0.8 µM
  relative viability: 0.975
[14]; first compound 2.53 µM
  relative viability: 0.771
[14]; first compound 8 µM
  relative viability: 0.845
[15]; first compound 0.08 µM
  relative viability: 0.998
[15]; first compound 0.253 µM
  relative viability: 0.987
[15]; first compound 0.8 µM
  relative viability: 1
[15]; first compound 2.53 µM
  relative viability: 1.03
[15]; first compound 8 µM
  relative viability: 1.12
[16]; first compound 0.08 µM
  relative viability: 0.825
[16]; first compound 0.253 µM
  relative viability: 0.841
[16]; first compound 0.8 µM
  relative viability: 1.04
[16]; first compound 2.53 µM
  relative viability: 0.829
[16]; first compound 8 µM
  relative viability: 1.13
[17]; first compound 0.08 µM
  relative viability: 0.946
[17]; first compound 0.253 µM
  relative viability: 1.11
[17]; first compound 0.8 µM
  relative viability: 1.1
[17]; first compound 2.53 µM
  relative viability: 0.971
[17]; first compound 8 µM
  relative viability: 1.17
[18]; first compound 0.08 µM
  relative viability: 0.688
[18]; first compound 0.253 µM
  relative viability: 0.889
[18]; first compound 0.8 µM
  relative viability: 0.965
[18]; first compound 8 µM
  relative viability: 0.861
[19]; first compound 0.08 µM
  relative viability: 0.832
[19]; first compound 0.253 µM
  relative viability: 0.853
[19]; first compound 0.8 µM
  relative viability: 0.899
[19]; first compound 2.53 µM
  relative viability: 0.825
[19]; first compound 8 µM
  relative viability: 0.951
[20]; first compound 0.08 µM
  relative viability: 0.998
[20]; first compound 0.253 µM
  relative viability: 1.09
[20]; first compound 0.8 µM
  relative viability: 1.04
[20]; first compound 8 µM
  relative viability: 1.01
[21]; first compound 0.08 µM
  relative viability: 0.758
[21]; first compound 0.253 µM
  relative viability: 0.821
[21]; first compound 0.8 µM
  relative viability: 0.87
[21]; first compound 2.53 µM
  relative viability: 0.738
[21]; first compound 8 µM
  relative viability: 0.925
